Laboratory results as given in patent publication US11517540B2, “Restoring physiology in iron-deficient organisms using small molecules” (The Board of Trustees of the University of Illinois, priority 2015, dated 2022).
Entries after “also recorded” stand apart in the source; their conditions may differ. One block for each compound: values may come before it. Where no end group is shown, it is not given here.

How the values were obtained:
[1] = Release of iron from POPC liposomes
Description: (§1) FIG. 5 illustrates the biophysical characterization of hinokitiol.

DMT1-deficient MEL cells [2] = test: Differentiation / hemoglobinization of DMT1-deficient MEL cells (o-dianisidine staining); conditions: for differentiation (staining of hemoglobinized cells with o-dianisidine): 2% DMSO induction
Description: To gain a better fundamental understanding of this phenomenon, DS19 murine erythroleukemia (MEL) cells were used. These terminally differentiate toward developing erythrocytes after induction with 2% DMSO leading to increased iron uptake and globin expression. DMT1-deficient cell lines through shRNA knockdown were developed (FIG. 7, panel (B)).

[3] = tested on: Mitoferrin-deficient MEL cell lines; test: Hemoglobinization and 55Fe use in mitoferrin-deficient MEL cells; type: cell-based, murine; conditions: for hemoglobinization: conditions identical to DMT1-deficient cells
[4] = Iron binding (UV trace after addition of iron); type: physicochemical
Description: as §1

[5] = tested on: DMT1-deficient Caco-2 epithelia monolayers; test: 55Fe uptake and transepithelial transport in DMT1-deficient Caco-2 monolayers; conditions: for 55Fe uptake into cells / transepithelial 55Fe transport: shDMT1 monolayers, apical addition
Description: (§2) In normal epithelia, iron brought into the cell via apical DMT1 transporters is stored in cytosolic ferritin clusters and directionally exported through the basolateral membrane by FPN1. Transepithelial iron flux via this network of proteins is regulated by the iron response element which is sensitive to intracellular iron concentrations.

[6] = tested on: DMT1-deficient Belgrade (b/b) rats; test: Chronic exposure of Belgrade (b/b) rats in rat chow: hematocrit; type: in vivo; conditions: for hematocrit after one month of treatment: 0.2% in rat chow (˜100 mg/kg/day)
Description: (§3) Belgrade (b/b) rats (FIG. 3, panel (A)) are the leading model of the disease and display severe hematological defects such as decreased hematocrit values amongst other markers.

[7] = tested on: Reticulocytes isolated ex vivo from DMT1-deficient Belgrade (b/b) rats; test: 59Fe incorporation into heme in reticulocytes isolated ex vivo; conditions: for 59Fe incorporation into heme: plasma spiked with 59Fe-transferrin, b/b reticulocytes
Procedure: The capacity for hinokitiol to restore hemoglobinization in DMT1-deficient erythroid progenitors was evaluated. Reticulocytes isolated ex vivo from DMT1-deficient Belgrade (b/b) and healthy (+/b) rats were incubated in plasma spiked with ^59Fe-transferrin to assess hinokitiol's ability to promote iron utilization.
The use of these MEL cells allowed us to test the hypothesis that hinokitiol autonomously transports iron down pre-existing concentration gradients. To do this, we utilized live cell fluorescence imaging with iron-specific dyes to visualize intracellular iron distribution.

hino-rescued yeast = test: Sensitivity of hinokitiol-rescued yeast to chemical inhibitors; type: cell-based, S. cerevisiae; conditions: ebselen: Pma1; bafilomycin: V-ATPase; caspofungin: off-pathway cell wall biosynthesis
[8] = Description: as §1
FPN1 = test: 55Fe uptake and transepithelial transport in control Caco-2 monolayers with FPN1 down-regulated by quercetin; type: cell-based, human
Description: as §2

[9] = 0.2% of feed, 13 weeks orally; cited from earlier work
Permeability assays = type: in vitro ADME; conditions: not told
Description: This was sustained for >2 months.

[10] = tested on: S. cerevisiae missing the iron transporting complex Fet3Ftr1 (fet3Δftr1Δ); test: Modified functional complementation: growth rescue of iron transporter-deficient yeast; type: cell-based
Procedure: To identify small molecules which perform such transport, a modified functional complementation experiment was performed. […] Growth restoration is not due to generic hormetic effects (FIG. 4, panel (D)) and can be sustained >40 days with continued reliance on hinokitiol (FIG. 4, panel (E)).

[11] = Toxicity and pharmacokinetic half-life in healthy rats
Description: as §3

J774 macrophages = type: cell-based
Procedure: To test the capacity for hinokitiol to restore iron release in FPN1 deficiencies, J774 macrophages were utilized. J774 cells with ^55Fe-transferrin were incubated in the absence or presence of hepcidin. Hepcidin is a key iron regulator, down-regulating FPN1 by promoting its degradation.

DMT1-deficient MEL cells [12] = test: Live cell fluorescence imaging of intracellular iron distribution with iron-specific dyes; type: cell-based, murine
TMEM14CΔ = test: Hemoglobinization in heme biosynthesis-deficient (TMEM14CΔ) cells; type: cell-based
[13] = control monolayers treated with quercetin

Compound: CC(C)c1cccc(=O)cc1 [C2deOHino, C2-deoxy hinokitiol]
iron transport (release of iron from POPC liposomes) [1]: ablated iron binding and transport; also recorded: does not bind or transport iron; also recorded: do not
differentiation (staining of hemoglobinized cells with o-dianisidine) (DMT1-deficient MEL cells [2]; shDMT1 MEL cells, 72 hours): unable to restore physiology in any case
55Fe incorporation into heme [3]: did not produce these effects
55Fe uptake [3]: did not produce these effects
hemoglobinization [3]: did not produce these effects
iron binding [4]: ablated iron binding and transport; also recorded: does not bind or transport iron; also recorded: does not
55Fe uptake into cells ([5]; hinokitiol 500 nM): unable to promote uptake or transport
transepithelial 55Fe transport ([5]; hinokitiol 500 nM): unable to promote uptake or transport
hematocrit after one month of treatment [6]: low hematocrits normally observed for untreated b/b rats
59Fe incorporation into heme [7]: no apparent effect

Compound: CO/C1=C\C(C)=C\[C@@H](C)[C@@H](O)[C@@H](C)C/C(C)=C/C=C/[C@H](OC)[C@@H]([C@@H](C)[C@@H](O)[C@H](C)[C@@]2(O)C[C@@H](O)[C@H](C)[C@@H](C(C)C)O2)OC1=O [bafilomycin]
sensitivity of hino-rescued yeast to chemical inhibition (hino-rescued yeast): exceptionally sensitive

Compound: CC[C@H](C)C[C@H](C)CCCCCCCCC(=O)N[C@H]1C[C@@H](O)[C@@H](NCCN)NC(=O)[C@@H]2[C@@H](O)CCN2C(=O)[C@H]([C@H](O)CCN)NC(=O)[C@H]([C@H](O)[C@@H](O)c2ccc(O)cc2)NC(=O)[C@@H]2C[C@@H](O)CN2C(=O)[C@H]([C@@H](C)O)NC1=O [caspofungin]
sensitivity of hino-rescued yeast to chemical inhibition (hino-rescued yeast): equi-sensitive

solubility in hexanes / partitioning into water [8]: partition primarily into water
Compound: Cc1c(O)c(=O)ccn1C [deferiprone, reference compound]
55Fe uptake into cells ([5]; hinokitiol 500 nM): unable to promote uptake or transport
transepithelial 55Fe transport ([5]; hinokitiol 500 nM): unable to promote uptake or transport

Compound: CC(C)c1cccc(=O)c(O)c1 [hinokitiol, 2-hydroxy-6-propan-2-ylcyclohepta-2,4,6-trien-1-one]
iron transport (release of iron from POPC liposomes) [1]: confirmed; also recorded: promotes the release of iron from POPC liposomes
differentiation without DMSO induction (DMT1-deficient MEL cells [2]; no DMSO induction): unable to promote differentiation without DMSO induction
differentiation (staining of hemoglobinized cells with o-dianisidine) (DMT1-deficient MEL cells [2]; shDMT1 MEL cells, 72 hours): restored differentiation
toxicity (DMT1-deficient MEL cells [2]; shDMT1 MEL cells, 72 hours): without toxicity
restoration of transepithelial transport in FPN1 down-regulated monolayers (FPN1; quercetin-treated monolayers plus hinokitiol): unable to restore transepithelial transport
55Fe incorporation into heme [3]: increases in ^55Fe uptake and incorporation into heme
55Fe uptake [3]: increases in ^55Fe uptake and incorporation into heme
hemoglobinization [3]: restored hemoglobinization
lethality [9]: non-lethal
oral bioavailability in vivo suggested by permeability assays (Permeability assays): good oral bioavailability
time over which growth restoration can be sustained ([10]; continued reliance on hinokitiol): > 40 days
restoration of cell growth ([10]; fet3Δftr1Δ yeast): restored cell growth
growth level relative to wild type ([10]; hinokitiol-treated fet3Δftr1Δ yeast, liquid media): grow to wild type levels
influx of 55Fe into cells ([10]; yeast): restoration of influx of ^55Fe into cells
pharmacokinetic half life ([11]; IP injection in F344 rats): reasonable pharmacokinetic half life
toxicity in healthy rats ([11]; rat, in vivo): relatively non-toxic
toxicity (J774 macrophages): without observable toxicity
release of intracellular iron (J774 macrophages; J774 cells with 55Fe-transferrin, FPN1 down-regulated with hepcidin): released this intracellular iron back to normal levels in dose-dependent fashion
cytosolic iron levels (calcein green) (DMT1-deficient MEL cells [12]): increased cytosolic and mitochondrial levels
endosomal iron levels (oxyburst green) (DMT1-deficient MEL cells [12]): decreased endosomal iron levels
mitochondrial iron levels (RPA) (DMT1-deficient MEL cells [12]): increased cytosolic and mitochondrial levels
iron binding [4]: confirmed; also recorded: binds iron
DMT1 expression after hinokitiol [5]: independent of DMT1 expression; also recorded: does not induce expression of DMT1
55Fe uptake as function of hinokitiol dosage ([5]; DMT1-deficient monolayers): proportional to the hinokitiol dosage
transepithelial 55Fe transport at high hinokitiol concentrations ([5]; DMT1-deficient monolayers): reduced when a high intracellular iron concentration is reached
basolateral to apical iron transport ([5]; basolateral addition of 55Fe and hinokitiol): failed to promote transport of iron from the basolateral to the apical side
monolayer integrity ([5]; hinokitiol 500 nM): without disrupting monolayer integrity
55Fe incorporation into ferritin ([5]; immunoprecipitation of ferritin after apical 55Fe, DMT1-deficient monolayers): restored high incorporation of ^55Fe into ferritin
uptake and transport at range of pH ([5]; pHs observed throughout the duodenum): maintained at a range of pHs observed throughout the duodenum
55Fe uptake into cells ([5]; hinokitiol 500 nM): restored
transepithelial 55Fe transport ([5]; hinokitiol 500 nM): restored
time over which hematocrit restoration was sustained ([6]; 0.2% in rat chow): > 2 months
hematocrit after one month of treatment ([6]; 100 mg/kg/day): restored hematocrit to b/b rats to levels that are no longer considered anemic; also recorded: restores hematocrit to non-anemic values
hematocrit after four weeks of treatment ([6]; 0.2% of feed, ˜125 mg/kg each day): significant increases in hematocrit
hemoglobinization (TMEM14CΔ): did not restore hemoglobinization
hemolysis ([7]; at concentrations increasing heme incorporation): did not cause hemolysis
59Fe incorporation into heme [7]: increased ^59Fe incorporation into heme in a dose-dependent fashion; also recorded: restored incorporation of ^59Fe into heme

Compound: Cc1ncc(CO)c(C=NNC(=O)c2ccncc2)c1O [pyridoxal isonicotinoyl hydrazone, reference compound]
55Fe uptake into cells ([5]; hinokitiol 500 nM): unable to promote uptake or transport
transepithelial 55Fe transport ([5]; hinokitiol 500 nM): unable to promote uptake or transport

Compound: O=c1c(O)c(-c2ccc(O)c(O)c2)oc2cc(O)cc(O)c12 [quercetin]
transepithelial transport after FPN1 down-regulation (FPN1; [13]): decreased transepithelial transport
uptake after FPN1 down-regulation (FPN1; [13]): without affecting uptake

partitioning of iron complex into octanol [8]: predominantly partitions into octanol
solubility in hexanes / partitioning into water [8]: soluble in hexanes
Compound: CC(C)c1cccc([O-])c(=O)c1.CC(C)c1cccc([O-])c(=O)c1.CC(C)c1cccc([O-])c(=O)c1.[Fe+3] [tris(hinacolato) iron (III)]

Compound: hepcidin: key iron regulator, down-regulating FPN1 by promoting its degradation (DTHFPICIFCCGCCHRSKCGMCCKT; ends and bridges not checked; cysteine pairing not given here; UniProt P81172 60-84, looked up) [reference compound]
iron release after FPN1 down-regulation (J774 macrophages; J774 cells with 55Fe-transferrin, presence of hepcidin): reduced iron release
